# Tests used:
# NCI-H23 = test: Growth inhibition of human NCI-H23 cells assessed as cell growth at 10 uM incubated for 48 hrs by sulforhodamine B assay relative to control; format: functional; conditions: NCI-H23, 48 h, read-out: Activity
# NCI-H460 = test: Growth inhibition of human NCI-H460 cells assessed as cell growth at 10 uM incubated for 48 hrs by sulforhodamine B assay relative to control; format: functional; conditions: NCI-H460, 48 h, read-out: Activity
# COLO 205 [1] = test: Growth inhibition of human COLO205 cells assessed as cell growth at 10 uM incubated for 48 hrs by sulforhodamine B assay relative to control; format: functional; conditions: COLO 205, 48 h, read-out: Activity
# HCC 2998 = test: Growth inhibition of human HCC2998 cells assessed as cell growth at 10 uM incubated for 48 hrs by sulforhodamine B assay relative to control; format: functional; conditions: HCC 2998, 48 h, read-out: Activity
# HCT-15 = test: Growth inhibition of human HCT15 cells assessed as cell growth at 10 uM incubated for 48 hrs by sulforhodamine B assay relative to control; format: functional; conditions: HCT-15, 48 h, read-out: Activity
# SW-620 = test: Growth inhibition of human SW620 cells assessed as cell growth at 10 uM incubated for 48 hrs by sulforhodamine B assay relative to control; format: functional; conditions: SW-620, 48 h, read-out: Activity
# SF-268 = test: Growth inhibition of human SF268 cells assessed as cell growth at 10 uM incubated for 48 hrs by sulforhodamine B assay relative to control; format: functional; conditions: SF-268, 48 h, read-out: Activity
# LOX IMVI [2] = test: Growth inhibition of human LOXIMVI cells assessed as cell growth at 10 uM incubated for 48 hrs by sulforhodamine B assay relative to control; format: functional; conditions: read-out: Activity
# Malme-3M = test: Growth inhibition of human MALME-3M cells assessed as cell growth at 10 uM incubated for 48 hrs by sulforhodamine B assay relative to control; format: functional; conditions: read-out: Activity
# M14 = test: Growth inhibition of human M14 cells assessed as cell growth at 10 uM incubated for 48 hrs by sulforhodamine B assay relative to control; format: functional; conditions: M14, 48 h, read-out: Activity
# MDA-MB-435 = test: Growth inhibition of human MDA-MB-435 cells assessed as cell growth at 10 uM incubated for 48 hrs by sulforhodamine B assay relative to control; format: functional; conditions: MDA-MB-435, 48 h, read-out: Activity
# SK-MEL-5 [3] = test: Growth inhibition of human SK-MEL-5 cells assessed as cell growth at 10 uM incubated for 48 hrs by sulforhodamine B assay relative to control; format: functional; conditions: SK-MEL-5, 48 h, read-out: Activity
# OVCAR-4 = test: Growth inhibition of human OVCAR4 cells assessed as cell growth at 10 uM incubated for 48 hrs by sulforhodamine B assay relative to control; format: functional; conditions: OVCAR-4, 48 h, read-out: Activity
# OVCAR-8 = test: Growth inhibition of human OVCAR8 cells assessed as cell growth at 10 uM incubated for 48 hrs by sulforhodamine B assay relative to control; format: functional; conditions: OVCAR-8, 48 h, read-out: Activity
# 786-0 = test: Growth inhibition of human 786-0 cells assessed as cell growth at 10 uM incubated for 48 hrs by sulforhodamine B assay relative to control; format: functional; conditions: 786-0, 48 h, read-out: Activity
# CAKI-1 = test: Growth inhibition of human Caki1 cells assessed as cell growth at 10 uM incubated for 48 hrs by sulforhodamine B assay relative to control; format: functional; conditions: CAKI-1, 48 h, read-out: Activity
# RXF 393 = test: Growth inhibition of human RXF393 cells assessed as cell growth at 10 uM incubated for 48 hrs by sulforhodamine B assay relative to control; format: functional; conditions: RXF 393, 48 h, read-out: Activity
# SN12C = test: Growth inhibition of human SN12C cells assessed as cell growth at 10 uM incubated for 48 hrs by sulforhodamine B assay relative to control; format: functional; conditions: read-out: Activity
# UO-31 = test: Growth inhibition of human UO31 cells assessed as cell growth at 10 uM incubated for 48 hrs by sulforhodamine B assay relative to control; format: functional; conditions: UO-31, 48 h, read-out: Activity
# MCF7 = test: Growth inhibition of human MCF7 cells assessed as cell growth at 10 uM incubated for 48 hrs by sulforhodamine B assay relative to control; format: functional; conditions: MCF7, 48 h, read-out: Activity
# Hs-578T = test: Growth inhibition of human Hs578T cells assessed as cell growth at 10 uM incubated for 48 hrs by sulforhodamine B assay relative to control; format: functional; conditions: read-out: Activity
# CCRF-CEM = test: Growth inhibition of human CCRF-CEM cells incubated for 48 hrs by sulforhodamine B assay; format: functional, cell-based
# KM12 = test: Growth inhibition of human KM12 cells incubated for 48 hrs by sulforhodamine B assay; format: functional, cell-based; conditions: KM12, 48 h
# MDA-MB-468 = test: Growth inhibition of human MDA-MB-468 cells incubated for 48 hrs by sulforhodamine B assay; format: functional, cell-based; conditions: MDA-MB-468, 48 h
# HL-60(TB) = test: Growth inhibition of human HL-60(TB) cells assessed as cell growth at 0.1 uM incubated for 48 hrs by sulforhodamine B assay relative to control; format: functional; conditions: HL-60, 48 h, read-out: Activity
# COLO 205 [4] = test: Growth inhibition of human COLO205 cells assessed as cell growth at 0.1 uM incubated for 48 hrs by sulforhodamine B assay relative to control; format: functional; conditions: COLO 205, 48 h, read-out: Activity
# LOX IMVI [5] = test: Growth inhibition of human LOXIMVI cells assessed as cell growth at 0.1 uM incubated for 48 hrs by sulforhodamine B assay relative to control; format: functional; conditions: read-out: Activity
# SR = test: Growth inhibition of human SR cells assessed as cell growth at 1 uM incubated for 48 hrs by sulforhodamine B assay relative to control; format: functional; conditions: read-out: Activity
# NCI-H522 = test: Growth inhibition of human NCI-H522 cells assessed as cell growth at 1 uM incubated for 48 hrs by sulforhodamine B assay relative to control; format: functional; conditions: NCI-H522, 48 h, read-out: Activity
# SNB-19 = test: Growth inhibition of human SNB19 cells assessed as cell growth at 1 uM incubated for 48 hrs by sulforhodamine B assay relative to control; format: functional; conditions: SNB-19, 48 h, read-out: Activity
# DU-145 = test: Growth inhibition of human DU145 cells assessed as cell growth at 1 uM incubated for 48 hrs by sulforhodamine B assay relative to control; format: functional; conditions: DU-145, 48 h, read-out: Activity
# SK-MEL-5 [6] = test: Growth inhibition of human SK-MEL-5 cells assessed as cell growth at 100 uM incubated for 48 hrs by sulforhodamine B assay relative to control; format: functional; conditions: SK-MEL-5, 48 h, read-out: Activity
# [7] = read-out: LC50 (the source's name)
# [8] = read-out: pLC50 (the source's name) (converted)
smiles,measurement,setting,value
COc1cc(Cl)cc(-c2nn(-c3cccc(NC(=O)c4cccc(C(F)(F)F)c4)c3)cc2-c2ccncc2)c1,growth at 10 µM,NCI-H23,55.6%
same,growth at 10 µM,NCI-H460,41.1%
same,growth at 10 µM,COLO 205 [1],68.5%
same,growth at 10 µM,HCC 2998,54.6%
same,growth at 10 µM,HCT-15,33.2%
same,growth at 10 µM,SW-620,77%
same,growth at 10 µM,SF-268,77.3%
same,growth at 10 µM,LOX IMVI [2],51.7%
same,growth at 10 µM,Malme-3M,92.4%
same,growth at 10 µM,M14,56.3%
same,growth at 10 µM,MDA-MB-435,65.6%
same,growth at 10 µM,SK-MEL-5 [3],70.7%
same,growth at 10 µM,OVCAR-4,71.8%
same,growth at 10 µM,OVCAR-8,42%
same,growth at 10 µM,786-0,66.6%
same,growth at 10 µM,CAKI-1,54%
same,growth at 10 µM,RXF 393,40.5%
same,growth at 10 µM,SN12C,65.8%
same,growth at 10 µM,UO-31,37.2%
same,growth at 10 µM,MCF7,39.4%
same,growth at 10 µM,Hs-578T,62.2%
same,GI50,CCRF-CEM; read-out: GI50,4.38 µM
same,CC50,CCRF-CEM; [7],> 100 µM
same,TGI,CCRF-CEM; read-out: TGI,> 100 µM
same,GI50,CCRF-CEM; read-out: pGI50 (converted),4.37 µM
same,CC50,CCRF-CEM; [8],> 100 µM
same,TGI,CCRF-CEM; read-out: pTGI (converted),> 100 µM
same,GI50,KM12; read-out: GI50,4.53 µM
same,CC50,KM12; [7],> 100 µM
same,TGI,KM12; read-out: TGI,> 100 µM
same,GI50,KM12; read-out: pGI50 (converted),4.57 µM
same,CC50,KM12; [8],> 100 µM
same,TGI,KM12; read-out: pTGI (converted),> 100 µM
same,IC50,MDA-MB-468,4.26 µM
same,GI50,MDA-MB-468; read-out: GI50,4.26 µM
same,CC50,MDA-MB-468; [7],> 100 µM
same,TGI,MDA-MB-468; read-out: TGI,> 100 µM
same,GI50,MDA-MB-468; read-out: pGI50 (converted),4.27 µM
same,CC50,MDA-MB-468; [8],> 100 µM
same,TGI,MDA-MB-468; read-out: pTGI (converted),> 100 µM
same,growth at 0.1 µM,HL-60(TB),90%
same,growth at 0.1 µM,COLO 205 [4],101%
same,growth at 0.1 µM,LOX IMVI [5],95%
same,growth at 1 µM,SR,58%
same,growth at 1 µM,NCI-H522,54%
same,growth at 1 µM,SNB-19,100%
same,growth at 1 µM,DU-145,100%
same,growth at 100 µM,SK-MEL-5 [6],20%
O=C(Nc1cccc(-n2cc(-c3ccncc3)c(-c3cc(O)cc(Cl)c3)n2)c1)c1cc(C(F)(F)F)cc(C(F)(F)F)c1,growth at 10 µM,NCI-H23,42.7%
same,growth at 10 µM,NCI-H460,19.9%
same,growth at 10 µM,COLO 205 [1],38.7%
same,growth at 10 µM,HCC 2998,28.9%
same,growth at 10 µM,HCT-15,30.1%
same,growth at 10 µM,SW-620,61%
same,growth at 10 µM,SF-268,69.3%
same,growth at 10 µM,LOX IMVI [2],10.5%
same,growth at 10 µM,Malme-3M,61.8%
same,growth at 10 µM,M14,24.5%
same,growth at 10 µM,MDA-MB-435,45.6%
same,growth at 10 µM,SK-MEL-5 [3],64.5%
same,growth at 10 µM,OVCAR-4,59.6%
same,growth at 10 µM,OVCAR-8,39.6%
same,growth at 10 µM,786-0,55.1%
same,growth at 10 µM,CAKI-1,58.5%
same,growth at 10 µM,RXF 393,-10.3%
same,growth at 10 µM,SN12C,50.3%
same,growth at 10 µM,UO-31,49.1%
same,growth at 10 µM,MCF7,23%
same,growth at 10 µM,Hs-578T,65.9%
same,GI50,CCRF-CEM; read-out: GI50,2.58 µM
same,CC50,CCRF-CEM; [7],> 100 µM
same,TGI,CCRF-CEM; read-out: TGI,> 100 µM
same,GI50,CCRF-CEM; read-out: pGI50 (converted),2.69 µM
same,CC50,CCRF-CEM; [8],> 100 µM
same,TGI,CCRF-CEM; read-out: pTGI (converted),> 100 µM
same,GI50,KM12; read-out: GI50,1.96 µM
same,CC50,KM12; [7],> 100 µM
same,GI50,KM12; read-out: pGI50 (converted),1.95 µM
same,CC50,KM12; [8],> 100 µM
same,IC50,MDA-MB-468,3.1 µM
same,GI50,MDA-MB-468; read-out: GI50,3.1 µM
same,CC50,MDA-MB-468; [7],> 100 µM
same,TGI,MDA-MB-468; read-out: TGI,> 100 µM
same,GI50,MDA-MB-468; read-out: pGI50 (converted),3.09 µM
same,CC50,MDA-MB-468; [8],> 100 µM
same,TGI,MDA-MB-468; read-out: pTGI (converted),> 100 µM
same,growth at 0.1 µM,COLO 205 [4],102%
same,growth at 0.1 µM,LOX IMVI [5],102%
same,growth at 1 µM,SR,71%
same,growth at 1 µM,NCI-H522,54%
same,growth at 1 µM,SNB-19,105%
same,growth at 1 µM,DU-145,93%
same,growth at 100 µM,SK-MEL-5 [6],-45%

# Reference: ChEMBL document CHEMBL4308841, “Synthesis, in vitro antiproliferative activity, and kinase inhibitory effects of pyrazole-containing diarylureas and diarylamides” (Eur J Med Chem, 2018)
